Assay results taken from PMC9169222, “Impedance-Based Phenotypic Readout of Transporter Function: A Case for Glutamate Transporters” (Frontiers in Pharmacology, 2022).
“Also recorded” adds a separate entry of the source. Where a name gives a salt, the structure may show the parent alone.

Legend:
[1] = test system: JumpIn-EAAT1 cells; assay: Targeted metabolomics (LC-MS/MS) of intracellular metabolite levels; format: cell-based, human; conditions: 1 mM substrate, 2 h
Protocol: JumpIn-EAAT1 cells were plated at 150,000 cells/well in 24 well poly-L-lysine coated plates in culture medium in the absence (−dox) or presence (+dox) of 1 μg/ml doxycycline and grown at 37°C and 5% CO2. After 24 h, the medium was refreshed and cells were pretreated with vehicle (PBS/DMSO) or 10 µM TFB-TBOA. […] For lysis, cells were first gently washed with room temperature bicarbonate buffer (91 mM NH4HCO3, pH 7.4). […] The cells were then scraped and transferred to a pre-cooled Eppendorf tube and immediately snap frozen in liquid nitrogen. Samples were thawed on ice before being centrifuged at 16,000 × g for 10 min at 4°C. The clarified metabolite-containing supernatants were moved into a high-performance liquid chromatography vial and stored at −80°C until LC-MS/MS analysis.
Cell extracts were dried using a nitrogen evaporator. The dry residue was reconstituted in 16 µl H2O and 4 µl of sample extract was used for LC-MS/MS analysis. […] The column was maintained at a temperature of 40°C and 4 µl of sample was injected per run. The mobile phase A was 3% MeOH (v/v), 10 mM tributylamine, 15 mM acetic acid in H2O, and mobile phase B was 10 mM tributylamine, 15 mM acetic acid in MeOH. The gradient elution with a flow rate 0.25 mL/min was performed for a total time of 24 min. […] The metabolites of interest were detected using a dynamic Multiple Reaction Monitoring (MRM) mode. The MassHunter 10.0 software (Agilent Technologies) was used for the data processing. Ten-point linear calibration curves with internal standardization were constructed for the quantification of metabolites.
Volcano plots were generated to visualize the significant up- or downregulation of intracellular metabolite concentrations. The log2 fold change upon substrate addition is plotted against the −log10 adjusted p-value.

[2] = target: T1, EAAT4 (JumpIn-EAAT4 cells) (Homo sapiens, UniProt P48664); assay: Impedance-based phenotypic assay on JumpIn-EAAT4 cells; format: cell-based; conditions: JumpIn-EAAT4, 1 mM L-glu, p = 0.093
T1 construct: expressed in transfected cells; host or cells: Jump In T-REx HEK 293
T1 sequence (P48664 1-564): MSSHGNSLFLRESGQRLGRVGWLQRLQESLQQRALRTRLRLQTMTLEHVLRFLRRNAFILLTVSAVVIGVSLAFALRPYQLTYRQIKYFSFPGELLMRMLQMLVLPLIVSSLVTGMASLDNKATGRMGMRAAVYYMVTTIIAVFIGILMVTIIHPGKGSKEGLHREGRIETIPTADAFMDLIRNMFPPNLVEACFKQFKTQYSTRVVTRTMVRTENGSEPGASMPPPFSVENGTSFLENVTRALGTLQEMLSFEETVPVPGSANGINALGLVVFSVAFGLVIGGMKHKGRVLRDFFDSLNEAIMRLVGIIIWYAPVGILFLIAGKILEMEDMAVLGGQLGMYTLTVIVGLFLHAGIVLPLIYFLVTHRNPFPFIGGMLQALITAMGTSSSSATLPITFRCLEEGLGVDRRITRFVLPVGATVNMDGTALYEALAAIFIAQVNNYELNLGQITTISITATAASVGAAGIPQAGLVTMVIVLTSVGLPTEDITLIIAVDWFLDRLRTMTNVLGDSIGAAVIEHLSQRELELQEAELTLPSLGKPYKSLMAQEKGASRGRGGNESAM
Protocol: Label-free whole-cell assays, based on cell-induced changes in impedance, were performed using the xCELLigence real-time cell analyzer (RTCA) system (ACEA Biosciences, San Diego, CA, United States) as described previously ([Vlachodimou et al., 2019]; [Sijben et al., 2021a], [2021b]). In short, cells are cultured in medium on gold-plated electrodes in microwell E-plates. Per well impedance is continuously measured at 10 kHz and is converted to the unitless parameter Cell Index (CI) by the following formula: CI=(Zi−Z0)Ω/15Ω where Zi is the impedance at any given time point and Z0 is the baseline impedance measured at the start of each experiment ([Kho et al., 2015]).
Assays were performed at 37°C and 5% CO2 in 96-well PET E-plates in a total volume of 100 µl per well. Prior to cell seeding, the baseline impedance (Z0) was measured in the recording station in 40 µl (two compound additions) or 45 µl (one compound addition) medium in the presence (+) or absence (−) of 1 μg/ml dox. […]
On the day of the experiment, JumpIn-EAAT cells grown to 70–80% confluence were trypsinized (0.25% trypsin in PBS/EDTA), counted and seeded in the E-plate in a volume of 50 μl at 60,000 cells/well. […] Cell growth was recorded overnight for 22 h. […] After stimulation the impedance was measured for at least 2 h. […]
Experimental data was recorded using RTCA Software v2.0 or v2.1.1 (ACEA Biosciences). […]

In the case of `N[C@@H](CCC(=O)O)C(=O)O` [L-glutamate, L-glutamic acid monosodium salt monohydrate], the “Intracellular cAMP levels” value [1] is reported as “significant elevations”, the Intracellular glutamine level [1] is reported as “not significantly altered” and the “Levels of TCA cycle intermediates and related metabolites” value [1] is reported as “increased”. For the same compound, the “Increase of intracellular aspartate” value ([1]; +dox) was 5 fold, the “Increase of intracellular glutamate” value ([1]; +dox) was 5 fold and the Intracellular taurine level ([1]; +dox) was “significantly reduced; also recorded: significant decrease”. For the same compound, the “Response in dox-induced vs non-induced cells” value [2] was “not significant”.
